From patent US7265150B1, “Carboxylic acids and carboxylic acid isosteres of N-heterocyclic compounds for vision and memory disorders” (GPI NIL Holdings Inc., priority 1998, dated 2007) come the findings set out here.

For data set [1], the system named is retinal ganglion cells, optic nerve axons and myelin. Briefly: Retinal ischemia (FIG. 1, FIG. 2). It is filed as in vivo, rat. The note with it: 10 mg/kg s.c. 1 hour prior to ischemia and 10 mg/kg/day for next four days; 28 days after ischemia. The source says:
Retinal ganglion cells were retrogradely labeled in adult rats by bilateral injection of fluorogold in their lateral geniculate nuclei. Labeled ganglion cells in the normal rat retina appear as white profiles against the dark background (FIG. 1A). Complete retinal ischemia was produced by infusing normal saline solution into the retinal vitreous cavity of each eye until the intraocular pressure exceeded arterial blood pressure. 28 days after the ischemic episode extensive degeneration of retinal ganglion cell was evidenced by massive reduction in the density of fluorogold labeled cells (FIG. 1B).

Data set [2] can be described thus: Clearance (Table V, Comments). It is filed as in vitro ADME.
For data set [3], the system named is aged C57BL/6N-Nia mice. Briefly: Morris watermaze, spatial learning and memory in aged rodents (Example 19). It is filed as in vivo, mouse. The note with it: 10 mg/kg daily; retention testing after 3 weeks of dosing. The source says:
The Morris watermaze is widely used for assessing spatial memory formation and retention in experimental animals. The test depends on the animal's ability to utilize spatial visual information in order to locate a submerged escape platform in a water tank. It is important that the tank itself be as devoid of specific visual features as possible-thus, it is always circular in shape, the sides are kept smooth and in uniform dull colors and the water is rendered opaque with nontoxic watercolor pigment or powdered milk. This is to ensure that the animal navigates only by the use of more distant visual cues, or by the use of intra-maze cues specifically provided by the experimenter. The tank is filled to a level which forces the animal to swim actively. Normal mice and rats react […] to the swimming part of the test and will climb onto, and remain on, an escape platform from which they are removed to a heated resting cage. If the platform is visible (i.e. above the surface), animals placed in the tank will quickly learn to home in on the platform and climb out onto it. […] Swim Distances (cm) were analyzed in a 7×5 ANOVA including Groups and Blocks (1-5) as factors in the analysis, treating Blocks as a repeated measure.

The test system of data set [4] is retinal ganglion cells and optic nerve axons. In words: Optic nerve transection, 14 or 28 day treatment, evaluated 90 days after transection (Example 6, Table I). It is filed as in vivo, rat. Conditions: 90 days after ONT. The text has this: All eyes and optic nerves stumps were removed.

Read-outs that look alike come from different tables or passages of the source.

Turning to `CCC(C)(C)C(=O)C(=O)N1CCC[C@H]1C(=O)OCCCc1cccnc1` [GPI 1046], in data set [1], the “protection of retinal ganglion cells after retinal ischemia (fluorogold labeled cells)” value is recorded as “noticeable protection of a large proportion of the vulnerable ganglion cell population”. In data set [2], the Clearance was 63.5 µL/min. Further, the “spatial memory performance (swim distance), retention testing, aged impaired mice vs vehicle” value in data set [3] was “significantly enhanced spatial memory performance”. Besides, the “Distal optic nerve myelin basic protein Density: shrinkage of cross sectional area” value in data set [4] (GPI 1046 14 days, compared to sham control) is “did not protect against shrinkage of the distal stump”. Besides, the “Distal optic nerve myelin basic protein Density: myelin loss” value in data set [4] (GPI 1046 14 days, cross sectional area multiplied by myelin density) is “slightly increase the density of myelin”. Also, the “Distal optic nerve myelin basic protein Density: less shrinkage of cross sectional area” value in data set [4] (GPI 1046 28 days) was “prevented cross sectional shrinkage”.

In data set [2] (unit printed as μl/ml), `CN(C)C(=O)N1CCC[C@H]1C(=O)SCCCc1ccccc1` [N] displayed a Clearance of 21.9.
